{"source": "patent US12083115B2", "about": "“Methods for treating neurological symptoms associated with lysosomal storage diseases” (Genzyme Corporation, priority 2020, dated 2024)", "key": {"[1]": {"tested_on": "GM3 expression in C32 human melanoma cells", "assay": "GM3 fluorescent-linked immunosorbent assay (FLISA), C32", "assay_type": "cell-based", "settings": "48 hours", "from_the_text": "Inhibition of glucosylceramide synthase activity can be measured with one or more assays. A first assay is a microsomal assay that directly measures the conversion of ceramide to glucosylceramide by HPLC. Microsomes are a source of glucosylceramide synthase activity in the microsomal assay. A second assay is a cell based, phenotypic assay that monitors cell surface expression of the downstream lipid GM3 by antibody mediated immunofluorescence. Specific protocols are provided below.\nThis is a phenotypic assay that measures GM3 expression in B16 mouse melanoma or C32 human melanoma cells following treatment with test compounds. Cell surface GM3 expression is determined by antibody mediated fluorescence.\nCompounds are diluted in media and plated in 384 well plates in DMSO. B16 and C32 cells are assayed at densities of 20,000 cells/ml and 62,500 cells/ml, respectively, per well. Each titration curve contains 10 points that are assayed in duplicate on each test run. The plates are incubated for 48 hours at 37° C., 5% CO2, and are then washed once with TBS. Anti-GM3 antibody is added to each well and the plates are then incubated for an additional one hour at room temperature. Plates are subsequently washed twice and incubated for an additional hour with the labeled secondary antibody. Following the final incubation, the plates are washed twice and the fluorescence at λex=D640/20 nm and λem=657 nm is detected on a fluorescent reader.\nThe results of the microsomal assays are expressed as “GCS IC50,” which represents the concentration of the compound causing 50% inhibition of glucosylceramide synthase activity. The results of the cell-based assays are expressed as “GM3 B16 IC50” or “GM3 C32 IC50” for the B16 assay and the C32 assay, respectively. These values represent the concentration of the compound causing 50% inhibition of GM3 expression on the cell surface."}, "[2]": {"tested_on": "glucosylsphingosine (lyso-GL1)", "assay": "Clinical study in GD-3 patients: lyso-GL1 in plasma and CSF", "assay_type": "in vivo, human", "settings": "for Lyso-GL-1 (% change): 52-weeks compared to baseline; for Lyso-GL-1 concentration, 52-weeks (mean) / Lyso-GL-1 concentration, 52-weeks: 15 mg/day + imiglucerase; for Lyso-GL-1 concentration, 52-weeks: all six patients", "experimental": "(§1) The endpoint assessments are related to safety, CSF biomarkers, pharmacokinetics/pharmacodynamics, systemic disease, and neuroimaging and neurological function (CNS/neurological manifestations).\n(§2) During the study patients were evaluated for safety and tolerability, CSF and plasma biomarkers (glucosylceramide, GL-1; glucosylsphingosine, lyso-GL1), pharmacokinetics, markers for systemic disease (spleen and liver volume measured by magnetic resonance imaging (MRI), platelet count, hemoglobin levels), indicia of interstitial lung disease (high resolution pulmonary computed tomography (CT)), and horizontal saccadic eye movement. In addition, exploratory biomarkers were quantified in CSF of GD3 patients: ceramide (the precursor of GL-1), chitotriosidase (CHITO), GM3, and GPNMB. Symptoms of ataxia were measured using the SARA scale, neurological symptoms were measured using the trail making test, and functional MRI was used to assess neural connectivity in the brain.\nOver all six GD3 patients, plasma and CSF GL-1 and lyso-GL-1 concentrations were as follows:\nAt Week 52, the CSF lyso-GL1 concentrations for Patient 5 were above the upper limit of quantification (ULOQ; >100 pg/mL), and biomarker results for CSF lyso-GL1 were therefore imputed using the exact ULOQ values. […] Mean results for the other study subjects were as follows (N=10; Patient 5 excluded): […]"}, "[3]": {"assay": "Clinical study in GD-3 patients (LEAP): Compound 2 concentrations in plasma and CSF", "assay_type": "in vivo, human", "from_the_text": "as §1\nPatients 18 years of age or older with a clinical diagnosis of GD3 and documented deficiency of acid beta-glucosidase activity having received treatment with ERT for at least 3 years and with imiglucerase (Cerezyme) at a stable monthly dose for at least 6 months prior to enrollment were included in the study. Patients must have reached the following GD therapeutic goals: hemoglobin level of ≥11.0 g/dL for females and ≥12.0 g/dL for males; platelet count 100 000/mm^3; spleen volume <10 multiples of normal (MN), or total splenectomy (provided the splenectomy occurred ≥3 years prior to randomization); liver volume <1.5 MN; and no bone crisis and free of symptomatic bone disease such as bone pain attributable to osteonecrosis and/or pathological fractures within the last year. Patients must have GD3 featuring oculomotor apraxia (supranuclear gaze palsy) characterized by a horizontal saccade abnormality.\nas §2\nIt is believed that this is due to either compliance or dosing errors, and therefore, analysis is repeated without Patient 5's Week 26 and 52 data included."}, "[4]": {"tested_on": "plasma GL-3 (globotriaosylceramide)", "assay": "Study 2: plasma GL-3 pharmacodynamics", "assay_type": "in vivo, human", "experimental": "The study enrolled and randomized 36 healthy adults (19 men and 17 women) (n=9 each to group).\nPharmacodynamic endpoints (plasma GL-1, GL-3, and GM3 concentrations) were assessed on Days 1-5, 8, 11, 13, and 14, at 0 hours […]; and on Day 15, at 24 hours after the Day 14 dose."}, "[5]": {"assay": "Study 1 Part 2: PK with and without a high-fat meal", "assay_type": "in vivo, human", "settings": "5 mg single dose", "from_the_text": "Study 1 was a 2-part single-center trial in healthy adult male volunteers.\nAfter a 7-day washout period, participants were crossed over to the other condition."}, "[6]": {"settings": "plasma, Day 1, N = 11, 15 mg/day + imiglucerase"}}}
{"smiles": "CC(C)(NC(=O)O[C@@H]1CN2CCC1CC2)c1csc(-c2ccc(F)cc2)n1", "note": "[Compound 2, (S)-quinuclidin-3-yl 2-(2-(4-fluorophenyl)thiazol-4-yl)propan-2-ylcarbamate]", "values": [{"measurement": "IC50", "setting": "[1]", "value": 9.6, "unit": "µM"}, {"measurement": "Lyso-GL-1 (% change)", "setting": "[2]; CSF Concentration, N = 6, 15 mg/day + imiglucerase", "value": "−55.9", "unit": "%"}, {"measurement": "Lyso-GL-1 (% change)", "setting": "[2]; CSF Concentration, N=10, Patient 5 excluded", "value": "−68% ± 17.2%"}, {"measurement": "Lyso-GL-1 concentration, 52-weeks (mean)", "setting": "[2]; CSF, N=10, Patient 5 excluded, Baseline 45.0 pg/mL", "value": 14.5, "unit": "pg/mL"}, {"measurement": "Lyso-GL-1 concentration, 52-weeks", "setting": "[2]; CSF, Baseline 34.0 pg/mL", "value": 17.3, "unit": "pg/mL"}, {"measurement": "increase in plasma lyso-GL1", "setting": "[2]; Patient 5 (reduced Compound 2 exposure), Week 52 compared to baseline", "value": "about 43%"}, {"measurement": "increase in CSF lyso-GL1", "setting": "[2]; Patient 5 (reduced Compound 2 exposure), Week 52 compared to baseline, imputed with ULOQ", "value": "about 313%"}, {"measurement": "CSF lyso-GL1 concentration", "setting": "[2]; Patient 5, Week 52, above ULOQ", "value": "> 100", "unit": "pg/mL"}, {"measurement": "Lyso-GL-1 (% change)", "setting": "[2]; Plasma Concentration, N = 6, 15 mg/day + imiglucerase", "value": "−56.7", "unit": "%"}, {"measurement": "Lyso-GL-1 (% change)", "setting": "[2]; Plasma Concentration, N=10, Patient 5 excluded", "value": "−53% ± 13.5%"}, {"measurement": "Lyso-GL-1 concentration, 52-weeks (mean)", "setting": "[2]; Plasma, N=10, Patient 5 excluded, Baseline 27.6 ng/ml", "value": 13600, "unit": "pg/mL"}, {"measurement": "Lyso-GL-1 concentration, 52-weeks", "setting": "[2]; Plasma, Baseline 29.3 ng/ml", "value": 15200, "unit": "pg/mL"}, {"measurement": "Concentration 2-4 hours post dose (mean ± SD)", "setting": "[3]; CSF, Day 1, N = 6, 15 mg/day + imiglucerase", "value": "<LLOQ"}, {"measurement": "Concentration 2-4 hours post dose (mean ± SD)", "setting": "[3]; CSF, Week 4, N = 6, 15 mg/day + imiglucerase", "value": "4.56 ± 1.20", "unit": "ng/mL"}, {"measurement": "Concentration 2-4 hours post dose (mean ± SD)", "setting": "[3]; CSF, Week 4, N = 10 (Patient 5 excluded), 15 mg/day + imiglucerase", "value": "6.63 ± 2.42", "unit": "ng/mL"}, {"measurement": "Concentration 2-4 hours post dose", "setting": "[3]; CSF, Week 4, Patient 5 Only", "value": 3.05, "unit": "ng/mL"}, {"measurement": "Concentration 2-4 hours post dose (mean)", "setting": "[3]; CSF, Week 26, Excluding Patient 5, 15 mg/day + imiglucerase", "value": 6.13, "unit": "ng/mL"}, {"measurement": "Concentration 2-4 hours post dose (mean ± SD)", "setting": "[3]; CSF, Week 26, N = 6, 15 mg/day + imiglucerase", "value": "5.26 ± 2.49", "unit": "ng/mL"}, {"measurement": "Concentration 2-4 hours post dose (mean ± SD)", "setting": "[3]; CSF, Week 26, N = 8 (Patient 5 excluded), 15 mg/day + imiglucerase", "value": "6.77 ± 1.96", "unit": "ng/mL"}, {"measurement": "Concentration 2-4 hours post dose", "setting": "[3]; CSF, Week 26, Patient 5 Only", "value": 1.77, "unit": "ng/mL"}, {"measurement": "Concentration 2-4 hours post dose (mean)", "setting": "[3]; CSF, Week 52, Excluding Patient 5, 15 mg/day + imiglucerase", "value": 5.32, "unit": "ng/mL"}, {"measurement": "Concentration 2-4 hours post dose (mean ± SD)", "setting": "[3]; CSF, Week 52, N = 6, 15 mg/day + imiglucerase", "value": "4.43 ± 3.23", "unit": "ng/mL"}, {"measurement": "Concentration 2-4 hours post dose (mean ± SD)", "setting": "[3]; CSF, Week 52, N = 10 (Patient 5 excluded), 15 mg/day + imiglucerase", "value": "6.14 ± 3.44", "unit": "ng/mL"}, {"measurement": "Concentration 2-4 hours post dose", "setting": "[3]; CSF, Week 52, Patient 5 Only", "value": "<LLOQ"}, {"measurement": "steady state concentration reached in plasma and CSF", "setting": "[3]; GD3 patients, 15 mg/day + imiglucerase", "value": "≤ 4", "unit": "Week"}, {"measurement": "plasma and CSF concentrations under co-treatment with CYP3A4 inducer rifampicin", "setting": "[3]; Patient 1, 52-week measurement, rifampicin Week 39 to Week 51", "value": "significant drop in plasma and CSF concentrations"}, {"measurement": "lower concentrations of Compound 2 in plasma and CSF", "setting": "[3]; Patient 5, Week 26 (compliance or dosing errors believed)", "value": "about 50%"}, {"measurement": "concentrations of Compound 2 in plasma and CSF", "setting": "[3]; Patient 5, Week 52", "value": "undetectable"}, {"measurement": "Concentration 2-4 hours post dose (mean ± SD)", "setting": "[3]; Plasma, Week 4, N = 10 (Patient 5 excluded), 15 mg/day + imiglucerase", "value": "116 ± 48.1", "unit": "ng/mL"}, {"measurement": "Concentration 2-4 hours post dose", "setting": "[3]; Plasma, Week 4, Patient 5 Only", "value": 102, "unit": "ng/mL"}, {"measurement": "Concentration 2-4 hours post dose (mean ± SD)", "setting": "[3]; Plasma, Week 26, N = 10 (Patient 5 excluded), 15 mg/day + imiglucerase", "value": "120 ± 40.1", "unit": "ng/mL"}, {"measurement": "Concentration 2-4 hours post dose", "setting": "[3]; Plasma, Week 26, Patient 5 Only", "value": 53.3, "unit": "ng/mL"}, {"measurement": "Concentration 2-4 hours post dose (mean ± SD)", "setting": "[3]; Plasma, Week 52, N = 10 (Patient 5 excluded), 15 mg/day + imiglucerase", "value": "114 ± 65.8", "unit": "ng/mL"}, {"measurement": "Concentration 2-4 hours post dose", "setting": "[3]; Plasma, Week 52, Patient 5 Only", "value": "<LLOQ"}, {"measurement": "crossing of the blood-brain barrier", "setting": "[3]; from plasma and CSF concentrations, N = 6, 15 mg/day + imiglucerase", "value": "effectively cross the blood-brain barrier in all patients"}, {"measurement": "Concentration 2-4 hours post dose (mean ± SD)", "setting": "[3]; plasma, Day 1, N = 6, 15 mg/day + imiglucerase", "value": "39.7 ± 12.6", "unit": "ng/mL"}, {"measurement": "AUC0-24 (mean ± SD)", "setting": "[3]; [6]", "value": "851 ± 282", "unit": "ng·h/mL"}, {"measurement": "Cmax (mean ± SD)", "setting": "[3]; [6]", "value": "58.1 ± 26.4", "unit": "ng/mL"}, {"measurement": "Concentration 2-4 hours post dose (mean ± SD)", "setting": "[3]; plasma, Week 4, N = 6, 15 mg/day + imiglucerase", "value": "92.3 ± 36.4", "unit": "ng/mL"}, {"measurement": "Concentration 2-4 hours post dose (mean)", "setting": "[3]; plasma, Week 26, Excluding Patient 5, 15 mg/day + imiglucerase", "value": 112, "unit": "ng/mL"}, {"measurement": "Concentration 2-4 hours post dose (mean ± SD)", "setting": "[3]; plasma, Week 26, N = 6, 15 mg/day + imiglucerase", "value": "102.0 ± 49.5", "unit": "ng/mL"}, {"measurement": "Concentration 2-4 hours post dose (mean)", "setting": "[3]; plasma, Week 52, Excluding Patient 5, 15 mg/day + imiglucerase", "value": 84, "unit": "ng/mL"}, {"measurement": "Concentration 2-4 hours post dose (mean ± SD)", "setting": "[3]; plasma, Week 52, N = 6, 15 mg/day + imiglucerase", "value": "69.8 ± 58.3", "unit": "ng/mL"}, {"measurement": "subjects with GL-3 values below LLOQ", "setting": "[4]; Day 15, 5-mg dose group (3 at baseline)", "value": 9, "unit": "subjects"}, {"measurement": "subjects with GL-3 values below LLOQ", "setting": "[4]; Day 15, 10-mg dose group (1 at baseline)", "value": 7, "unit": "subjects"}, {"measurement": "subjects with GL-3 values below LLOQ", "setting": "[4]; Day 15, 20-mg dose group (6 at baseline)", "value": 9, "unit": "subjects"}, {"measurement": "Plasma GL-3 over time", "setting": "[4]; all Compound 2 dose groups, low baseline values relative to LLOQ", "value": "decreased with time"}, {"measurement": "effect of a high-fat meal on Compound 2 exposure", "setting": "[5]; high-fat meal compared with fasting", "value": "no effect"}, {"measurement": "Tmax", "setting": "[5]; male, human, plasma, oral, whether fed or fasting, read-out: Median tmax", "value": 6, "unit": "h"}]}
